Results: US12161653B2, “Treatment of submental fat” (Allergan Sales, LLC, priority 2011, dated 2024)

Columns and labels:
[1] = test system: caudal lateral fat pads; assay: Fat pad necrosis in Zucker rats after a single injection; type: in vivo; conditions: for effectiveness: Zucker rats and clinical studies
Protocol: In the rats study, 8 rats received a single injection into the caudal lateral fat pads of 2.5 mL deoxycholic acid at 1%, 0.5%, 0.25%, or 0.1% concentrations, or 2.5 mL vehicle (0.9% benzyl alcohol in water).

[2] = test system: subcutaneous abdominal tissue; assay: Clinical trial: histological changes, efficacy and safety by concentration; type: in vivo, human
Protocol: These findings are consistent with the increased intensity of adverse effects at the higher concentrations and larger volumes administered (0.4 mL/injection) in clinical trials. […] Concentrations at or below 0.25% were not tested, as they are at or below the concentration necessary to form micelles. The formation of micelles is essential for lipolytic activity.
(§1) A total of 274 subjects participated in 6 Phase ½ clinical studies that were conducted with SDI. Of these, 3 studies (n=179) evaluated SDI for the treatment of submental fat (SMF). Two studies evaluated SDI for the treatment of superficial lipoma. One study (SDI-08-10) evaluated the histological effects of SDI in subcutaneous abdominal tissue in subjects scheduled to undergo abdominoplasty.

[3] = In vitro micelle formation; type: physicochemical
Excerpt: When secreted into the small intestine, bile acids form micelles with dietary fats to aid in lipolysis and lipid absorption.

[4] = test system: submental fat (SMF) deposits; assay: Example 2 placebo-controlled clinical study, SMF rating scale; type: in vivo, human; conditions: for change from baseline at week 16 compared to placebo in SMF rating scale score: significance (ANCOVA): every 4 weeks, up to 4 treatments
Protocol: A clinical study was conducted to evaluate the effectiveness of various doses of sodium deoxycholate in removing undesired submental fat (SMF) deposits. A multicenter, randomized, double-blind, placebo-controlled, parallel-group comparison of 3 concentrations of sodium deoxycholate (0.5, 1.0, and 2.0 percent w/v) in sterile water with 0.9% benzyl alcohol and placebo was conducted to determine the efficacy of reduction in SMF deposits. Placebo injection consisted of sterile water with 0.9% benzyl alcohol.
All subjects were to have up to 4 treatment sessions at intervals of no less than 4 weeks (±3 days) between treatments.
Eligible subjects were concurrently randomized into one of the following groups: • Placebo injected every 4 weeks for up to 4 treatments • 0.5% w/v sodium deoxycholate injected every 4 weeks for up to 4 treatments • 1.0% w/v sodium deoxycholate injected every 4 weeks for up to 4 treatments • 2.0% w/v sodium deoxycholate injected every 4 weeks for up to 4 treatments
85 subjects were randomized: 21 subjects to the 0.5% w/v sodium deoxycholate group, 20 subjects to the 1.0% w/v sodium deoxycholate group; 22 subjects to the 2.0% w/v sodium deoxycholate (DCA) group; and 22 subjects to the placebo group. 73 subjects completed the study.
Subject selection included males or non-pregnant, non-lactating females aged 25 to 65 years, inclusive, on the date of randomization, with SMF that was considered undesirable by the subject and graded by the investigator as 2 or 3 using the SMF rating scale, and a history of maintenance of a stable body weight, in the judgment of the investigator, for at least 6 months before randomization.

[5] = Phase 1/2 clinical studies with SDI: safety; type: in vivo, human
Protocol: as §1
(§2) The most commonly observed adverse events associated with the treatment area include pain, erythema, induration, swelling, bruising, and numbness. Less frequently, pruritus and paresthesia have been reported. […] The pharmacokinetics of SDI is linear, illustrating the predictable overall exposure. Plasma concentrations were transient with peak concentrations observed at approximately 15 to 30 minutes, returning to endogenous deoxycholate levels within 24 hours after dosing.

[6] = Pharmacokinetics of SDI in clinical studies (plasma deoxycholate); type: in vivo; conditions: human
Protocol: as §2

[7] = test system: submental fat; assay: Earlier clinical studies of SDI for submental fat (SMFRS, SSRS); type: in vivo, human
Protocol: as §1
The SMF scale used to assess efficacy in clinical studies with SDI has been validated and shown to be reliable. […] The expected improvement from treatment with SDI is consistent with what patients who desire aesthetic changes would find satisfactory.

[8] = test system: submental fat (SMF); assay: Example 3 phase II placebo-controlled study (CR-SMFRS, PR-SMFRS, PR-SMFIS, MRI, other scales); type: in vivo, human; conditions: for number of patients having at least 1-point improvement (CR-SMFRS) vs placebo group: week 16, 24 and 32
Protocol: A clinical study was conducted to evaluate the effectiveness of various doses of sodium deoxycholate in removing undesired submental fat (SMF) deposits. This clinical study was multicenter, randomized, double-blind, placebo-controlled study of sodium deoxycholate injection (“SDI” or alternatively “ATX-101”) versus placebo for the reduction of localized subcutaneous fat in the submental area (SMF) using magnetic resonance imaging (MRI) and a battery of clinician- and subject-reported measurements.
Study Design: FIG. 2 depicts the study Design and Treatment Schema associated with this procedure. This was a multicenter, randomized, double-blind, placebo-controlled study in which approximately 120 subjects received either up to 50 mg SDI, up to 100 mg SDI, or placebo in a 1:1:1 ratio (5 mg/mL:10 mg/mL:placebo) as indicated below, to evaluate the safety and efficacy of fixed concentrations of SDI given in up to 50 0.2-mL injections in up to 6 treatment sessions. No subject received more than 10 mL in any treatment session, nor did any subject undergo more than 6 treatment sessions. The initial 30 subjects were enrolled in a 2:2:1 ratio (i.e., 12, 12 and 6 subjects per group, for the two SDI groups and placebo, respectively) and the remaining subjects were randomized to balance the enrollment (approximately 28, 28, and […] per group for the two SDI groups and placebo, respectively).
To measure changes in SMF volume and thickness, MRI acquisitions were repeated prior to each treatment session and post-treatment (4 and 12 weeks after the last treatment cycle). Before subjects completed each MRI visit, the MRI images were evaluated for acceptability.
Subjects who successfully completed screening and baseline evaluations received up to 50 injections (0.2 mL each for a maximum volume of 10 mL) per treatment session, depending upon size and configuration of the SMF. Treatment was given at 4-week (±5 days) intervals. Study material injection sites were positioned using a 1.0 cm grid, which is designed to achieve an appropriate distribution of injections across the submental area.
Study Material, Dose, and Route of Administration: SDI (sodium deoxycholate injection) was provided in a concentration of 5 mg/mL (0.5%) and 10 mg/mL (1.0%) in 10 mM sodium phosphate, 0.9% (weight per volume [w/v]) sodium chloride, and 0.9% (w/v) benzyl alcohol in water for injection (WFI). Each vial (for single use only) contained at least 2.0 mL of accessible material, accessed by means of sterile syringe and needle through a rubber stopper closure.
Evaluation of Efficacy: The effects of 5 mg/mL SDI and 10 mg/mL SDI transcutaneous injections in the submental area were evaluated relative to placebo by measuring the following: (1) the reduction of fat using Clinician-Reported Submental Fat Rating Scale (CR-SMFRS), Patient-Reported Submental Fat Rating Scale (PR-SMFRS), and Patient-Reported Submental Fat Impact Scale (PR-SMFIS); (2) the volume of SMF using MRI; and (3) the thickness of SMF using MM. The efficacy evaluation criteria included: Clinician-Reported Submental Fat Rating Scale (CR-SMFRS), Patient-Reported Submental Fat Rating Scale (PR-SMFRS), Patient-Reported Submental Fat Impact Scale (PR-SMFIS) scores, and Magnetic resonance imaging (MM).
Other Evaluations: The effects of 5 mg/mL SDI and 10 mg/mL SDI transcutaneous injections in the submental area, relative to placebo, for changes in skin laxity (SLRS), Subject Self Rating Scale (SSRS), and subject-reported outcome measures (Self-Ratings of Attractiveness, Derriford Appearance Scale [DAS], Body Image Quality of Life Inventory [BIQLI]), other Subject-Reported Questions, and Post-treatment Questions) were evaluated. Measurements of the thickness of fat in the submental area were made using calipers. Photographs were taken to document treatment effects. […]

SMILES: C[C@H](CCC(=O)O)[C@H]1CC[C@H]2[C@@H]3CC[C@@H]4C[C@H](O)CC[C@]4(C)[C@H]3C[C@H](O)[C@]12C [deoxycholic acid]
- fat pad necrosis relative to 0.5% ([1]; 1.0% vs 0.5%, single 2.5 mL injection): approximately 2.5 times
- histological changes ([2]; 2.0%): marked necrosis, resulting in lipid lake formation and vessel damage
- histological changes ([2]; 4.0%): marked necrosis, resulting in lipid lake formation and vessel damage

SMILES: C[C@H](CCC(=O)[O-])[C@H]1CC[C@H]2[C@@H]3CC[C@@H]4C[C@H](O)CC[C@]4(C)[C@H]3C[C@H](O)[C@]12C.[Na+] [sodium deoxycholate]
- minimal concentration at which micelle formation was observed [3]: 0.25 % w/v
- effectiveness ([1]; 0.5% w/v): effective
- effectiveness ([1]; 1.0% w/v): effective
- effect compared with vehicle ([1]; doses at and below 0.25%): no different than vehicle
- time points with statistically significant change from baseline in SMF rating scale score compared to placebo ([4]; 0.5% w/v): weeks 8, 12, 16 and 24
- change from baseline at week 16 compared to placebo in SMF rating scale score: significance (ANCOVA) ([4]; 0.5% w/v): statistically significant
- time points with statistically significant improvement in SMF rating scale score compared to placebo ([4]; 1.0% w/v): weeks 12, 16 and 24
- change from baseline at week 16 compared to placebo in SMF rating scale score: significance (ANCOVA) ([4]; 1% w/v): statistically significant
- relative effectiveness by visual assessment methods ([4]; 2.0% vs 1.0% or 0.5%): less effective than ATX-101 1.0% or 0.5%
- time points with statistically significant improvement in SMF rating scale score compared to placebo ([4]; 2% w/v): only at week 24
- change from baseline at week 16 compared to placebo in SMF rating scale score: significance (ANCOVA) ([4]; 2% w/v): not
- safety profile across studies ([5]; 0.5% vs 2.0% and 4.0%): better safety profile than the higher concentrations
- safety profile across studies ([5]; 1.0% vs 2.0% and 4.0%): better safety profile than the higher concentrations
- safety and tolerability ([5]; all concentrations in clinical studies): safe and well tolerated
- adverse events ([5]; clinical studies, not systemic): local, transient injection site reactions of mild to moderate intensity
- pharmacokinetics (linearity) [6]: linear
- time of peak plasma concentrations [6]: 15 to 30 min
- time to return to endogenous deoxycholate levels after dosing [6]: ≤ 24 h
- SSRS scores ([7]; 0.5% [0.2 mL/1.0 cm]): significantly better than placebo
- change in SMFRS score at Week 16 ([7]; 0.5% [0.2 mL/1.0 cm]): significantly better than placebo
- SSRS scores ([7]; 1.0% [0.2 mL/1.0 cm]): significantly better than placebo
- change in SMFRS score at Week 16 ([7]; 1.0% [0.2 mL/1.0 cm]): significantly better than placebo
- CR-SMFRS change from baseline (FIG. 4) ([8]; 0.5%): marked reduction of submental fat as compared with placebo
- SMF thickness and volume by MRI ([8]; 0.5%): statistically significant reduction
- SSRS, patient impact scores, patient impact questionnaire, improvement in appearance of the chin and satisfaction ([8]; 0.5%): statistically significant changes
- number of patients having at least 1-point improvement (CR-SMFRS) vs placebo group ([8]; 0.5%): greater
- CR-SMFRS change from baseline (FIG. 4) ([8]; 1.0%): marked reduction of submental fat as compared with placebo
- SMF thickness and volume by MRI ([8]; 1.0%): statistically significant reduction
- SSRS, patient impact scores, patient impact questionnaire, improvement in appearance of the chin and satisfaction ([8]; 1.0%): statistically significant changes
- statistical significance of CR-SMFRS reduction vs placebo ([8]; 1.0%): statistically significant at most time points
- dose response by CR-SMFRS ([8]; 1.0% and 0.5%): good dose response
- dose response by PR-SMFRS ([8]; 1.0% and 0.5%): good dose response
- SMF thickness and volume by MRI, compared with 0.5% ([8]; 1.0% vs 0.5%): better dose response and greater reduction
- relative effectiveness by CR-SMFRS ([8]; 1.0% vs 0.5%): more effective than 0.5%
- relative effectiveness by PR-SMFRS ([8]; 1.0% vs 0.5%): more effective than 0.5%
- number of patients having at least 1-point improvement (CR-SMFRS) vs placebo group ([8]; 1.0%): greater
- 1-grade reduction, CR-SMFRS ([8]; 1.0%, week 16 and week 32): Statistically significance was obtained
- 1-grade reduction, PR-SMFRS ([8]; 1.0%, week 16 and week 32): Statistically significance was obtained
- 2-grade reduction, PR-SMFRS ([8]; 1.0%, week 32): Statistically significance was obtained
- CR-SMFRS with BMI as a standard (FIG. 18) ([8]; ATX-101 treatments): significant submental fat reduction
- CR-SMFRS/body weight ratio ([8]; FIGS. 20 and 21): decreased significantly
